{"source": "paper PMC7693160", "about": "(Pharmaceutics, 2020)", "key": {"CYP2C9 3*/3*": {"system": "CYP2C9 3*/3*", "conditions": "Recombinant CYP (fu,mic = 1), cited from earlier work"}, "[1]": {"system": "tooth pulp-evoked potentials (TPEP) amplitude and subjective pain intensity rating", "conditions": "cited from earlier work; for Rmax obs: 100 mg tablet; for TRmax obs: median"}, "[2]": {"assay": "Equilibrium solubility, Uniprep method, 24 h at 37 °C", "assay_type": "physicochemical", "procedure": "The solubility of FLU was investigated in various aqueous and biorelevant dissolution media using the Uniprep system (Whatman, Piscataway, NJ, USA). All aqueous buffers were prepared according to the European Pharmacopoeia, while the biorelevant media were prepared according to Markopoulos et al. and Fuchs et al.. An excess amount of API was added to 3 mL of dissolution medium and the samples were incubated for 24 h at 37 °C on an orbital mixer. The samples were then filtered through the 0.45 μm polytetrafluoroethylene (PTFE) filter integrated in the Uniprep system. The filtrate was immediately diluted with mobile phase and analyzed by high-performance liquid chromatography (HPLC) (see Section 2.5). All measurements were performed at least in triplicate (n ≥ 3) and the final pH was recorded. […] Whatman, Piscataway, NJ, USA) and subsequently, after appropriate dilution with mobile phase, analyzed by HPLC-UV (Hitachi Chromaster; Hitachi Ltd., Tokyo, Japan or Spectra System HPLC, ThermoQuest Inc., San Jose, CA, USA). A BDS Hypersil C18, 5 μm, 150 × 4.6 mm (Thermo Scientific, Waltham, MA, United States) analytical column combined with a pre-column (BDS Hypersil C-18, 3μm, 10 × 4mm) was used. The mobile phase consisted of water adjusted to pH = 3.0 with trifluoroacetic acid (TFA) and acetonitrile (49.5:0.5:50% v/v). The detection wavelength was set at 247 nm, the flow rate at 1.0 mL/min, and the injection volume at 20 μL. Using this method, the retention time was approximately 6.8 min."}, "[3]": {"assay": "Model-based analysis of in vitro dissolution data (DLM, SIVA)", "assay_type": "physicochemical", "from_the_text": "The dissolution rate of spherical particles under sink and non-sink conditions within SIVA is described by an extension of the diffusion layer model (DLM) developed by Wang and Flanagan (Equation (3)). (3) DRt=-[…] where DRt is the dissolution rate at time t, N is the number of particles in a given particle size bin, and SDLM is a lumped correction scalar without regard to the mechanistic origin of the correction to the DLM. The SDLM estimates obtained with SIVA can be applied to the Simcyp PBPK simulator to reflect differences between media or formulations by simulating the respective in vivo dissolution; Deff is the effective diffusion coefficient; […] represent the thickness of the hydrodynamic boundary layer and the particle radius at time t, respectively; Ssurfacet corresponds to the saturation solubility at the particle surface (which may be different to the bulk fluid solubility, as discussed below); and Cbulkt is the concentration of dissolved drug in bulk solution at time t. The […] calculated by the fluid dynamics sub-model, which enables the hydrodynamic conditions to be described according to local conditions and stirring rate. Fluid dynamics-based […] recommended option for describing the hydrodynamics, as it permits a more rational translation of estimated parameters such as the SDLM to in vivo conditions, in which the hydrodynamics are usually quite different to in vitro experiments. […] Since the in vitro dissolution media have a somewhat […] buffer capacity than the intestinal fluids, the self-buffering effect at the solid surface can be underestimated. For this reason, the surface pH was calculated and directly input into SIVA. The calculation of the surface pH is based on the model first proposed by Mooney et al., which assumes that dissolution is the result of both chemical reaction between the conjugate base of the buffer species and the hydrogen cations released from the dissolving drug (in this case FLU) at the liquid-solid interface and the diffusion of the dissolved particles to the bulk. This model is very similar to the quasi-equilibrium model published by Ozturk et al., a derivative of which is implemented in SIVA as the default option for surface pH calculations. By fitting the DLM model to the observed dissolution data, we obtained SDLM estimates for each dissolution and two-stage test. In the case of two-stage testing, different SDLM values were obtained for the gastric and intestinal compartments, accounting for the changes in the respective in vitro conditions. Under fasted state intestinal conditions, FLU is freely soluble and therefore dissolution is not expected to be solubility limited. In that case, disintegration of the solid dosage form in the intestinal dissolution medium might be the rate-limiting step for the in vitro dissolution rate, especially in single dissolution experiments where the dosage form is directly exposed to the intestinal medium without any pre-treatment in a gastric medium. […] For the two-stage test experiments, the option was kept deactivated since disintegration in the stomach is already accounted for by the dissolution in the gastric medium. Both gastric and intestinal phases of the two-stage results were modelled simultaneously using the serial dilution model, which can account for more than one in vitro dissolution condition in the same experiment. Estimation of the relevant parameters was performed using the Nelder-Mead algorithm and equal weighting was applied. […]"}}, "note": "Like-named read-outs stand apart in the source and are kept apart here."}
{"smiles": "CC(C(=O)O)c1ccc(-c2ccccc2)c(F)c1", "note": "(stereo not shown) [flurbiprofen]", "values": [{"measurement": "CYP2C9 3*/3*-Vmax", "setting": "CYP2C9 3*/3*", "result": 8.901, "unit": "pmol/min/pmol CYP"}, {"measurement": "Km", "setting": "CYP2C9 3*/3*; read-out: CYP2C9 3*/3*-Km", "result": 23.2, "unit": "µM"}, {"measurement": "Rmax obs", "setting": "[1]; Pain intensity reduction", "result": 53.1, "unit": "%"}, {"measurement": "AUCE obs", "setting": "[1]; Pain intensity reduction", "result": 224.2, "unit": "%·h"}, {"measurement": "TRmax obs", "setting": "[1]; Pain intensity reduction", "result": 4.00, "unit": "h"}, {"measurement": "Rmax obs", "setting": "[1]; TPEP amplitude reduction", "result": 47.3, "unit": "%"}, {"measurement": "AUCE obs", "setting": "[1]; TPEP amplitude reduction", "result": 224.2, "unit": "%·h"}, {"measurement": "TRmax obs", "setting": "[1]; TPEP amplitude reduction", "result": 4.00, "unit": "h"}, {"measurement": "solubility at 24 h", "setting": "[2]; 37 °C, aqueous buffer, thermodynamic from solid, Acetate buffer (pH = 4.5), pHfinal 4.7, read-out: Solubility, mean (SD)", "result": 101, "unit": "µg/mL"}, {"measurement": "solubility at 24 h", "setting": "[2]; 37 °C, aqueous buffer, thermodynamic from solid, Phosphate buffer (pH = 6.5), pHfinal 6.1, read-out: Solubility, mean (SD)", "result": 2020, "unit": "µg/mL"}, {"measurement": "solubility at 24 h", "setting": "[2]; 37 °C, aqueous buffer, thermodynamic from solid, Phosphate buffer (pH = 6.8), pHfinal 6.3, read-out: Solubility, mean (SD)", "result": 3130, "unit": "µg/mL"}, {"measurement": "solubility at 24 h", "setting": "[2]; 37 °C, fassgf or other biorelevant, thermodynamic from solid, Level III FaSSGF (pH = 1.6), pHfinal 1.6, read-out: Solubility, mean (SD)", "result": 18.5, "unit": "µg/mL"}, {"measurement": "solubility at 24 h", "setting": "[2]; 37 °C, thermodynamic from solid, FaSSGF Level I (pH = 1.6), pHfinal 1.6, read-out: Solubility, mean (SD)", "result": 18.1, "unit": "µg/mL"}, {"measurement": "solubility at 24 h", "setting": "[2]; 37 °C, thermodynamic from solid, FeSSIF V1 Level I (pH = 5.0), pHfinal 5.1, read-out: Solubility, mean (SD)", "result": 225, "unit": "µg/mL"}, {"measurement": "solubility at 24 h", "setting": "[2]; 37 °C, thermodynamic from solid, Level II FaSSIF V1 (pH = 6.5), pHfinal 6.0, read-out: Solubility, mean (SD)", "result": 1950, "unit": "µg/mL"}, {"measurement": "solubility at 24 h", "setting": "[2]; 37 °C, thermodynamic from solid, Level II FaSSIF V3 (pH = 6.7), pHfinal 5.9, read-out: Solubility, mean (SD)", "result": 1590, "unit": "µg/mL"}, {"measurement": "solubility at 24 h", "setting": "[2]; aqueous buffer (FaSSGF Level I), pH 1.6, minimum experimentally measured value, read-out: S0 (intrinsic solubility)", "result": 18, "unit": "µg/mL"}, {"measurement": "SDLM (95% CI)", "setting": "[3]; FaSSGF Level III", "result": "0.0218 (0.0161–0.0274)"}, {"measurement": "SDLM (95% CI)", "setting": "[3]; FaSSIF V3 Level I, listed as API", "result": 0.00185}, {"measurement": "SDLM (95% CI)", "setting": "[3]; FaSSIF V3 Level I, listed as API Powder", "result": "0.00185 (0.001–0.00312)"}, {"measurement": "SDLM (95% CI)", "setting": "[3]; FaSSIF V3 Level II", "result": "0.0965 (0.0544–0.139)"}, {"measurement": "SDLM (95% CI)", "setting": "[3]; Ph. Eur. Phosphate Buffer", "result": "0.00542 (0.00468–0.00617)"}]}
